Experimental data from PMC6222357, “Liquid Chromatography-Tandem Mass Spectrometry Simultaneous Determination and Pharmacokinetic Study of Fourteen Alkaloid Components in Dog Plasma after Oral Administration of Corydalis bungeana Turcz Extract” (Molecules : A Journal of Synthetic Chemistry and Natural …, 2018).

Legend:
[1] = Stability of the analytes in beagle plasma QC samples under different storage conditions; type: physicochemical, beagle dog; conditions: n = 6; for Stability (% RE) Long-Term: 2 weeks at −80 °C; for Stability (% RE) Short-Term: 4 h at ambient temperature; for Stability (% RE) Freeze-Thaw: three freeze (−80 °C)-thaw cycles; for Stability (% RE) Post-Preparative: 12 h after sample preparation at 4 °C
Procedure: As illustrated in Table 4. The stability of QC samples at three evaluated concentrations contained low, medium and high under different stored conditions was assessed on the basis of peak areas in comparison with freshly prepared QC sample.
(§1) The stability of the fourteen analytes in beagle dogs investigated by analyzing QC samples of each analyte at three QC levels (LQC, MQC and HQC) and each level contained six replicates. The short-term stability was assessed during storage for 4 h at ambient temperature. The long-term stability was determined after the QC samples had been stored for 2 weeks at −80 °C. The freeze-thaw stability was determined after three freeze at −80 °C and thaw cycles. and post-preparative stability was during storage for 12 h after sample preparation at 4 °C. The room temperature stability for stock solution was determined after storing the sample at 25 °C for 24 h. A series of concentrations of stability testing QC samples was gained by the calibration curve which was established from freshly prepared standard samples.

[2] = Pharmacokinetic study in beagle dogs after oral administration of C. bungeana extract (UHPLC-MS/MS of plasma); conditions: for Shape of plasma concentration-time profile / Time of first peak of plasma concentration-time profile / Time of second peak of plasma concentration-time profile: beagle dog plasma; for Shape of plasma concentration-time profile: oral C. bungeana extract 0.12 g/kg; for Time of first peak of plasma concentration-time profile / Time of second peak of plasma concentration-time profile: oral C. bungeana extract, post-dose; for AUC(0-inf) / AUC(0-t) / Cmax / Tmax / half-life: male, beagle, dog, plasma, po, 0.12 g/kg
Procedure: The developed UHPLC-MS/MS method was employed to determine the pharmacokinetics of the fourteen components in C. bungeana after a single oral administration of 0.12 g/kg (equivalent to 1180.8 µg/kg A, 100.8 µg/kg B, 172.8 µg/kg C, 194.4 µg/kg D, 147.6 µg/kg E, 291.6 µg/kg F, 7.2 µg/kg G, 64.8 µg/kg H, 10.8 µg/kg I, 435.6 µg/kg J, 7.2 µg/kg K, 2851.2 µg/kg L, 694.8 µg/kg M, 928.8µg/kg N) to six beagle dogs. […] According to the Meeh-Rubn method, we established a final oral dosage of 0.12 g/kg in dogs. The plasma concentrations of the fourteen components at each time point were detected and the data gained from six beagle dogs were averaged.
Before the experiment, the beagle dogs were fasted for 12 h but given water during the research period. Blood (300 µL) was collected from the forelimb vein plexus at a few specific time points (0.083, 0.25, 0.5, 0.75 and 1, 2, 3, 4, 6, 8, 12, 24 h) after the oral administration of the extract of C. bungeana (0.12 g/kg). After centrifugation at 13,000 rpm for 10 min, the plasma was collected immediately and maintained at −80 °C until sample analysis.
Using a liquid-liquid extraction method, 100 µL of methanol and 50 µL of IS (bifendate) were added to a beagle dog plasma sample (100 µL) followed by vortex for 30 s. Then 3 mL of aether was accurately added and the mixture was vortexed for 60 s. After this step, the samples were put into a centrifuge (XiangYi Technologies, Changsha, Hunan, China). The organic supernatant was pipetted into clean glass tubes individually after centrifugation 3800 rpm for 6 min. The upper organic layer was removed and evaporated to dryness at 40 °C under a stream of nitrogen. The residue was then redissolved with 100 µL of mobile phase (28% acetonitrile), vortexed for 30 s and filtered by a 0.22 µm membrane. A 10 µL aliquot of the solution was injected into the UHPLC-MS/MS system for analysis.
Concentrations of fourteen alkaloids in beagle dog blood were calculated employing the Excel program (Microsoft Corp., Redmond, WA, USA). Pharmacokinetic parameters were calculated using non-compartmental methods. The elimination rate constant (Ke) was calculated employing the linear regression of the terminal points in a semi-log plot of the plasma concentration against time. The elimination half-life (t1/2) was calculated using the formula. t1/2 = 0.693/Ke(1)
The area under the blood concentration versus time curve up to the last quantifiable time point (AUC0→t) was calculated by the linear trapezoidal rule. The area under the plasma concentration –time curve to time infinity (AUC0→∞) was calculated as follows: AUC0→∞ = AUC0→t + Ct/Ke(2)
The maximum observed blood concentration (Cmax) and the time to reach maximum observed blood concentration (Tmax) were obtained directly from the concentration-time curve.

[3] = Room temperature stability of stock solution; type: physicochemical; conditions: 25 °C for 24 h, n = 6
Procedure: as §1

Compound | Stability (% RE) Long-Term ([1]; high QC in beagle plasma) [% RE] | Stability (% RE) Short-Term ([1]; high QC in beagle plasma) [% RE] | Stability (% RE) Freeze-Thaw ([1]; high QC in beagle plasma) [% RE] | Stability (% RE) Post-Preparative ([1]; high QC) [% RE] | Stability (% RE) Long-Term ([1]; low QC in beagle plasma) [% RE] | Stability (% RE) Short-Term ([1]; low QC in beagle plasma) [% RE] | Stability (% RE) Freeze-Thaw ([1]; low QC in beagle plasma) [% RE] | Stability (% RE) Post-Preparative ([1]; low QC) [% RE] | Stability (% RE) Long-Term ([1]; medium QC in beagle plasma) [% RE] | Stability (% RE) Short-Term ([1]; medium QC in beagle plasma) [% RE] | Stability (% RE) Freeze-Thaw ([1]; medium QC in beagle plasma) [% RE] | Stability (% RE) Post-Preparative ([1]; medium QC) [% RE] | AUC(0-inf) [2] [ng·h/mL] | AUC(0-t) [2] [ng·h/mL] | Cmax [2] [ng/mL] | Tmax [2] [h] | half-life [2] [h] | Stability (% RE) Room Temperature for Stock-Solution ([3]; high QC level) [% RE] | Stability (% RE) Room Temperature for Stock-Solution ([3]; low QC level) [% RE] | Stability (% RE) Room Temperature for Stock-Solution ([3]; medium QC level) [% RE] | also measured
COc1cc2c(cc1O)-c1cc3ccc(OC)c(OC)c3c[n+]1CC2 [Columbamine, columbamine] | 10.24 | 9.67 | 5.60 | 12.44 | 9.66 | 8.47 | 11.50 | 8.80 | 11.77 | 4.02 | 12.73 | 5.50 | 7030 ± 290 | 6830 ± 170 | 2130 ± 196 | 0.92 ± 0.13 | 2.87 ± 0.42 | 2.50 | 4.02 | 1.62 | Shape of plasma concentration-time profile [2]: conspicuous bimodal phenomenon; Time of first peak of plasma concentration-time profile [2]: 0.5 to 1 h; Time of second peak of plasma concentration-time profile [2]: 4 to 8 h
CC(=O)O[C@H]1Cc2cc3c(cc2[C@H]2N(C)Cc4c(ccc5c4OCO5)[C@@]12C)OCO3 [Acetylcorynoline, acetylcorynoline] | 7.32 | −4.81 | −4.20 | 2.05 | 8.62 | 6.47 | 5.17 | 12.65 | 7.56 | 6.74 | −3.75 | −3.44 | 244 ± 26.2 | 230 ± 18.6 | 107 ± 4.63 | 0.58 ± 0.13 | 5.52 ± 0.93 | 3.69 | −1.83 | 2.57 | 
COc1cc2c(cc1O)CC[n+]1cc3c(OC)c(OC)ccc3cc1-2 [Jateorhizine, jateorhizine] | 8.26 | 6.64 | 6.24 | 8.41 | 12.90 | 7.31 | 10.65 | 6.63 | 10.30 | 3.05 | 8.68 | 8.51 | 163 ± 11 | 151 ± 6.42 | 74.2 ± 8.71 |  | 6.29 ± 1.09 | 1.32 | 1.16 | −3.58 | Shape of plasma concentration-time profile [2]: conspicuous bimodal phenomenon; Time of first peak of plasma concentration-time profile [2]: 0.5 to 1 h; Time of second peak of plasma concentration-time profile [2]: 4 to 8 h
COc1ccc2cc3[n+](cc2c1OC)CCc1cc2c(cc1-3)OCO2 [Berberine, berberine] | 7.00 | 11.96 | 7.71 | 10.36 | 7.75 | 9.61 | 12.57 | 11.84 | 7.72 | 7.42 | 11.60 | 9.39 | 3770 ± 139 | 3690 ± 141 | 1370 ± 313 | 0.92 ± 0.13 | 2.49 ± 0.14 | −3.26 | 2.22 | 4.08 | Shape of plasma concentration-time profile [2]: conspicuous bimodal phenomenon; Time of first peak of plasma concentration-time profile [2]: 0.5 to 1 h; Time of second peak of plasma concentration-time profile [2]: 4 to 8 h
CN1C(=O)c2c(ccc3c2OCO3)C2(C)C(O)Cc3cc4c(cc3C12)OCO4 (stereo not drawn) [8-oxocorynoline] | 3.13 | −2.89 | −3.58 | 10.60 | 3.08 | 1.62 | 1.18 | 3.71 | 5.35 | −3.92 | 9.69 | 10.01 | 284 ± 62.4 | 260 ± 64.2 | 94.5 ± 22.8 | 0.92 ± 0.13 | 6.98 ± 1.76 | 2.30 | −4.08 | 3.77 | 
